Converted amounts (≈) assume the structure as drawn.
Assays:
[1] = tested on: human fetal lung-derived normal fibroblast MRC-5 cells; experiment: Cytotoxicity test (MTT assay); assay type: cell-based; conditions: for IC50: Homo sapiens, MRC5, 168 h, seven days culture, MTT assay, read-out: IC50 value MRC-5 cell; for Selectivity index (MRC-5 cytotoxicity IC50 / anti-trypanosoma IC50): (IC50 values for cytotoxicity)/(IC50 values for anti-trypanosoma activity)
Experimental: J. Antibiotics, 54: 658 to 663, (2001)]. That is, the human fetal lung-derived normal fibroblast MRC-5 cells [can be provided by Dr. […], Belgium)] were maintained and subcultured in the MEM-medium containing 10% bovine fetal serum (FCS) and antibiotics and were used as the host cell model. […] The presence or absence of the proliferation of the MRC-5 cells was measured by colorimetric quantification by the MTT assay. […] Also, the selectivity index (SI) was calculated as (IC50 values for cytotoxicity)/(IC50 values for anti-trypanosoma activity).

[2] = tested on: Trypanosoma brucei brucei GUTat 3.1 strain; experiment: In vitro inhibitory activity on trypanosoma protozoa proliferation (Alamar Blue); conditions: for IC50: Trypanosoma brucei, 72 h, read-out: IC50 value Trypanosoma brucei brucei GUTat3.1 strain
[3] = tested on: the microorganisms listed in Table 7; experiment: Antibacterial activity, paper disc method, overall statement; assay type: cell-based; conditions: summary in words
Experimental: The antibacterial activities of Mangromicins A, B and C of the present invention were measured by the following method. Filter paper discs (Advantec, a diameter of 6 mm) were impregnated with 10 μL of 1 mg/mL solutions of Mangromicins A, B and C in methanol, and air-dried for a certain period of time to remove the solvent. Subsequently, the discs were placed on agar plates each containing the test bacteria shown in Table 7, followed by culturing at 35° C. for 24 hours. The diameter of the growth inhibiting zones formed around the paper discs was measured.

[4] = tested on: Bacillus subtilis ATCC6633; experiment: Antibacterial activity, paper disc method; assay type: cell-based; conditions: 6 mm disc, 10 μL of 1 mg/mL, 35° C., 24 hours, read-out: the diameter of inhibiton zones

Row | Compound | IC50 [1] | IC50 [2] | Selectivity index (MRC-5 cytotoxicity IC50 / anti-trypanosoma IC50) [1] | antibacterial activities on the microorganisms listed in Table 7 [3] | anti-trypanosoma activity compared to suramin and eflornithine ([2]; T.b.b. GUTat 3.1 strain, relative to suramin and eflornithine) | zone of inhibition at 1000 µg/mL [4]
1 | NCCCC(N)(C(=O)O)C(F)F (centres unmarked) [Eflornithine, eflornithine, reference compound] | > 100 µg/mL | 2.27 µg/mL (≈ 12.5 µM) |  |  |  | 
2 | CCCC1C(O)=C2CCC3(C)CC(C)C(O3)C(O)C(O)C(C)C(=O)CC1OC2=O (centres unmarked) [Mangromicin A] | 16 µg/mL (≈ 39 µM) | 2.44 µg/mL (≈ 5.94 µM) | 6.6 | almost no antibacterial activities | equivalent or slightly inferior | 
3 | CCCC1C(O)=C2CCC3(C)CC(C)C(O3)C(O)/C=C(\C)C(=O)CC1OC2=O (centres unmarked) [Mangromicin B] | 92.6 µg/mL (≈ 236 µM) | 43.4 µg/mL (≈ 111 µM) | 2.1 | almost no antibacterial activities |  | 7 mm
4 | Cc1ccc(C(=O)Nc2ccc(S(=O)(=O)O)c3cc(S(=O)(=O)O)cc(S(=O)(=O)O)c23)cc1NC(=O)c1cccc(NC(=O)Nc2cccc(C(=O)Nc3cc(C(=O)Nc4ccc(S(=O)(=O)O)c5cc(S(=O)(=O)O)cc(S(=O)(=O)O)c45)ccc3C)c2)c1 [Suramin, suramin, reference compound] | > 100 µg/mL | 1.58 µg/mL (≈ 1.22 µM) |  |  |  | 

— patent publication US9000194B2, “Mangromicin compound and production method therefor” (The Kitasato Institute, priority 2011, dated 2015)
